Laboratory results as given in PMC9226124, “Macrocycle-stabilization of its interaction with 14-3-3 increases plasma membrane localization and activity of CFTR” (Nature Communications, 2022).
Several values for one entry are separate records, joined by “and”; a condition that tells them apart may be missing. Identical values can stand only once.

What was measured:
[1] = biological target: T1, FITC-labeled CFTRpS753pS768 peptide (no 14-3-3) (Homo sapiens, UniProt P13569); test: Dose-response FP control assay in the absence of 14-3-3; format: binding; conditions: No 14-3-3
T1 construct: made in house; host or cells: synthetic peptide
Method in brief: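 Control run without 14-3-3: FITC-CFTR pS753/pS768 peptide (100 nM or 10 nM) with compound titrated in twofold dilutions in 10 mM HEPES pH 7.4, 150 mM NaCl, 0.1% Tween20, 1 mg/mL BSA. Fluorescence polarization read at ex 485/em 535 nm, background subtracted, n = 3. Curves fitted by four-parameter log(agonist) vs. response.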

[2] = biological target: T2, 14-3-3β/CFTRpS753pS768 complex (Homo sapiens, UniProt P13569+P31946); test: Dose-response fluorescence polarization (FP) assay, compound titration; format: binding; conditions: for EC50: 14-3-3β 10 μM, labeled CFTRpS753pS768 100 nM, read-out: EC50; for FP signal: With 14-3-3
T2 construct: His6 (cleaved yes); made in house; peptide synthetic
Method in brief: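 Compounds were titrated in two-fold dilutions against 10 μM 14-3-3β and FITC-CFTR pS753pS768 peptide (100 nM or 10 nM). Buffer: 10 mM HEPES pH 7.4, 150 mM NaCl, 0.1% Tween20, 1 mg/mL BSA. Polarization was read at ex 485/em 535 nm, and EC50 was derived from a four-parameter variable-slope fit.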

T1 sequence (P13569 747-774 limits assumed): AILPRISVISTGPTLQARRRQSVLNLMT
T2 sequence (P31946 whole entry): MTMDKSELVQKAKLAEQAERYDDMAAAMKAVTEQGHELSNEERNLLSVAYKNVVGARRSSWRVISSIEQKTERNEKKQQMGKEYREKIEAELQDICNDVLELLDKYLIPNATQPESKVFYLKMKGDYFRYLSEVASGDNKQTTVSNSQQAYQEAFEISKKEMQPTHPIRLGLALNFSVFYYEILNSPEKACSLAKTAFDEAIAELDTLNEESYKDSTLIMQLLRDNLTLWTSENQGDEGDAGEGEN

CN1CC(=O)NC(CCCNC(=N)N)C(=O)NC(CCC(N)=O)C(=O)NC(CCCNC(=N)N)C(=O)NCc2ccccc2-c2cccc(c2)C1 (stereo not drawn) [CY007491]
FP signal ([1]; compound 476.8 pM): 4 | FP signal ([1]; compound 953.7 pM): 5 | FP signal ([1]; compound 1.90735e-9 M): 5 | FP signal ([1]; compound 3.8147e-9 M): 6 | FP signal ([1]; compound 7.6294e-9 M): 4 | FP signal ([1]; compound 1.52588e-8 M): 6 | FP signal ([1]; compound 3.05176e-8 M): 3 | FP signal ([1]; compound 6.10352e-8 M): 5 | FP signal ([1]; compound 1.2207e-7 M): 8 | FP signal ([1]; compound 2.44141e-7 M): 6 | FP signal ([1]; compound 4.88281e-7 M): 5 | FP signal ([1]; compound 9.76563e-7 M): 5 | FP signal ([1]; compound 1.95313e-6 M): 6 | FP signal ([1]; compound 3.90625e-6 M): 7 | FP signal ([1]; compound 7.8125e-6 M): 7 | FP signal ([1]; compound 1.5625e-5 M): 9 | FP signal ([1]; compound 3.125e-5 M): 18 | FP signal ([1]; compound 6.25e-5 M): 35 | FP signal ([1]; compound 0.000125 M): 83 | FP signal ([1]; compound 0.00025 M): 142 | FP signal ([1]; compound 0.0005 M): 193 | FP signal ([1]; compound 0.001 M): 240 | EC50 [2]: 244 µM | FP signal ([2]; compound 476.8 pM): 4 | FP signal ([2]; compound 953.7 pM): 5 | FP signal ([2]; compound 1.90735e-9 M): 5 | FP signal ([2]; compound 3.8147e-9 M): 6 | FP signal ([2]; compound 7.6294e-9 M): 4 | FP signal ([2]; compound 1.52588e-8 M): 6 | FP signal ([2]; compound 3.05176e-8 M): 3 | FP signal ([2]; compound 6.10352e-8 M): 5 | FP signal ([2]; compound 1.2207e-7 M): 8 | FP signal ([2]; compound 2.44141e-7 M): 6 | FP signal ([2]; compound 4.88281e-7 M): 5 | FP signal ([2]; compound 9.76563e-7 M): 5 | FP signal ([2]; compound 1.95313e-6 M): 6 | FP signal ([2]; compound 3.90625e-6 M): 7 | FP signal ([2]; compound 7.8125e-6 M): 7 | FP signal ([2]; compound 1.5625e-5 M): 9 | FP signal ([2]; compound 3.125e-5 M): 18 | FP signal ([2]; compound 6.25e-5 M): 35 | FP signal ([2]; compound 0.000125 M): 83 | FP signal ([2]; compound 0.00025 M): 142 | FP signal ([2]; compound 0.0005 M): 193 | FP signal ([2]; compound 0.001 M): 240

N=C(N)NCCCC1NC(=O)C(CCC(N)=O)NC(=O)C(CCCNC(=N)N)NC(=O)C2CCCN2Cc2cccc(c2)-c2ccccc2CNC1=O (stereo not drawn) [CY007455]
FP signal ([1]; compound 476.8 pM): 5 | FP signal ([1]; compound 953.7 pM): 6 | FP signal ([1]; compound 1.90735e-9 M): 3 | FP signal ([1]; compound 3.8147e-9 M): 4 | FP signal ([1]; compound 7.6294e-9 M): 5 | FP signal ([1]; compound 1.52588e-8 M): 4 | FP signal ([1]; compound 3.05176e-8 M): 4 | FP signal ([1]; compound 6.10352e-8 M): 5 | FP signal ([1]; compound 1.2207e-7 M): 7 | FP signal ([1]; compound 2.44141e-7 M): 6 | FP signal ([1]; compound 4.88281e-7 M): 4 | FP signal ([1]; compound 9.76563e-7 M): 4 | FP signal ([1]; compound 1.95313e-6 M): 5 | FP signal ([1]; compound 3.90625e-6 M): 9 | FP signal ([1]; compound 7.8125e-6 M): 8 | FP signal ([1]; compound 1.5625e-5 M): 15 | FP signal ([1]; compound 3.125e-5 M): 26 | FP signal ([1]; compound 6.25e-5 M): 53 | FP signal ([1]; compound 0.000125 M): 107 | FP signal ([1]; compound 0.00025 M): 170 | FP signal ([1]; compound 0.0005 M): 209 | FP signal ([1]; compound 0.001 M): 244 | EC50 [2]: 170 µM | FP signal ([2]; compound 476.8 pM): 5 | FP signal ([2]; compound 953.7 pM): 6 | FP signal ([2]; compound 1.90735e-9 M): 3 | FP signal ([2]; compound 3.8147e-9 M): 4 | FP signal ([2]; compound 7.6294e-9 M): 5 | FP signal ([2]; compound 1.52588e-8 M): 4 | FP signal ([2]; compound 3.05176e-8 M): 4 | FP signal ([2]; compound 6.10352e-8 M): 5 | FP signal ([2]; compound 1.2207e-7 M): 7 | FP signal ([2]; compound 2.44141e-7 M): 6 | FP signal ([2]; compound 4.88281e-7 M): 4 | FP signal ([2]; compound 9.76563e-7 M): 4 | FP signal ([2]; compound 1.95313e-6 M): 5 | FP signal ([2]; compound 3.90625e-6 M): 9 | FP signal ([2]; compound 7.8125e-6 M): 8 | FP signal ([2]; compound 1.5625e-5 M): 15 | FP signal ([2]; compound 3.125e-5 M): 26 | FP signal ([2]; compound 6.25e-5 M): 53 | FP signal ([2]; compound 0.000125 M): 107 | FP signal ([2]; compound 0.00025 M): 170 | FP signal ([2]; compound 0.0005 M): 209 | FP signal ([2]; compound 0.001 M): 244

N=C(N)NCCCC1NCc2ccccc2Sc2ccccc2CNC(=O)C(Cc2ccc(O)cc2)NC(=O)C(CCCN)NC1=O (stereo not drawn) [CY007424]
FP signal ([1]; compound 476.8 pM): 4 | FP signal ([1]; compound 953.7 pM): 5 | FP signal ([1]; compound 1.90735e-9 M): 5 | FP signal ([1]; compound 3.8147e-9 M): 7 | FP signal ([1]; compound 7.6294e-9 M): 4 | FP signal ([1]; compound 1.52588e-8 M): 7 | FP signal ([1]; compound 3.05176e-8 M): 6 | FP signal ([1]; compound 6.10352e-8 M): 5 | FP signal ([1]; compound 1.2207e-7 M): 5 | FP signal ([1]; compound 2.44141e-7 M): 7 | FP signal ([1]; compound 4.88281e-7 M): 7 | FP signal ([1]; compound 9.76563e-7 M): 7 | FP signal ([1]; compound 1.95313e-6 M): 6 | FP signal ([1]; compound 3.90625e-6 M): 12 | FP signal ([1]; compound 7.8125e-6 M): 27 | FP signal ([1]; compound 1.5625e-5 M): 52 | FP signal ([1]; compound 3.125e-5 M): 122 | FP signal ([1]; compound 6.25e-5 M): 193 | FP signal ([1]; compound 0.000125 M): 244 | FP signal ([1]; compound 0.00025 M): 263 | FP signal ([1]; compound 0.0005 M): 257 | FP signal ([1]; compound 0.001 M): 271 | EC50 [2]: 36.1 µM and 36 µM | FP signal ([2]; compound 476.8 pM): 4 | FP signal ([2]; compound 953.7 pM): 5 | FP signal ([2]; compound 1.90735e-9 M): 5 | FP signal ([2]; compound 3.8147e-9 M): 7 | FP signal ([2]; compound 7.6294e-9 M): 4 | FP signal ([2]; compound 1.52588e-8 M): 7 | FP signal ([2]; compound 3.05176e-8 M): 6 | FP signal ([2]; compound 6.10352e-8 M): 5 | FP signal ([2]; compound 1.2207e-7 M): 5 | FP signal ([2]; compound 2.44141e-7 M): 7 | FP signal ([2]; compound 4.88281e-7 M): 7 | FP signal ([2]; compound 9.76563e-7 M): 7 | FP signal ([2]; compound 1.95313e-6 M): 6 | FP signal ([2]; compound 3.90625e-6 M): 12 | FP signal ([2]; compound 7.8125e-6 M): 27 | FP signal ([2]; compound 1.5625e-5 M): 52 | FP signal ([2]; compound 3.125e-5 M): 122 | FP signal ([2]; compound 6.25e-5 M): 193 | FP signal ([2]; compound 0.000125 M): 244 | FP signal ([2]; compound 0.00025 M): 263 | FP signal ([2]; compound 0.0005 M): 257 | FP signal ([2]; compound 0.001 M): 271
